Structures are written as SMILES. Starred links: 1 amine or outer side, 2 acyl side, 3 side chain; linkers in the order of their positions; H or OH if unused. Positions of bridges follow the written chain, without caps; N, C: chain ends. Residues, ends and D or L forms follow the SMILES beside them. *: point of attachment. C18 diacid = O=C(O)CCCCCCCCCCCCCCCCC(=O)*; γGlu = O=C(O)[C@H](CCC(=O)[*:2])N[*:1]; AEEA = NCCOCCOCC(=O)O

The values that follow come from patent publication US20240209028A1, “CNP COMPOUNDS” (priority 2022, published 2024).

A short description of this data set: Thioflavin T (ThT) assay: lagtime and peptide recovery. The data set is classed as physicochemical. The settings on record: assay terminated after 45 hours; for LagTime (h) at pH 6.5: ThT assay, pH 6.5, 37° C. The essentials: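 ThT (final about 1 μM) was added to peptide supernatants at pH 4.0 and 6.5 and incubated at 37 °C with orbital shaking for 45 h. Fluorescence (ex 444/em 485 nm) was read every 20 min, and lag-time was taken as the time to onset of signal rise. Recovery is the RP-UPLC (215 nm) total peak area after vs. before incubation.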

Consider `CC[C@H](C)[C@@H]1NC(=O)[C@H](CCCNC(=N)N)NC(=O)[C@H](CC(=O)O)NC(=O)[C@H](CC(C)C)NC(=O)[C@@H]2CCCN2C(=O)[C@H](CC(C)C)NC(=O)CNC(=O)[C@H](Cc2ccccc2)NC(=O)[C@@H](NC(=O)CNC(=O)[C@H](CCC(N)=O)NC(=O)[C@H](CO)NC(=O)[C@H](CC(C)C)NC(=O)CNC(=O)[C@H](CCCCN)NC(=O)[C@H](CCCCN)NC(=O)[C@H](CCC(N)=O)NC(=O)[C@H](C)NC(=O)CNC(=O)[C@H](CCCCN)NC(=O)[C@H](Cc2ccc(O)cc2)NC(=O)COCCOCCNC(=O)COCCOCCNC(=O)COCCOCCNC(=O)COCCOCCNC(=O)CC[C@H](NC(=O)CC[C@H](NC(=O)CC[C@H](NC(=O)CCCCCCCCCCCCCCCCC(=O)O)C(=O)O)C(=O)O)C(=O)O)CSSC[C@@H](C(=O)O)NC(=O)CNC(=O)[C@H](CC(C)C)NC(=O)CNC(=O)[C@H](CO)NC(=O)[C@H](CC(C)C)NC(=O)[C@H](CO)NC(=O)CNC1=O` [compound 9480] ({C18 diacid-γGlu-γGlu-γGlu-AEEA-AEEA-AEEA-AEEA}-YKGAQKKGLSQGCFGLPLDRIGSLSGLGC-OH; disulfide 13-29), for which the “LagTime (h) at pH 6.5” value was determined as 45 h.
Still for that read-out and setting: the result for `CC[C@H](C)[C@@H]1NC(=O)[C@H](CCCNC(=N)N)NC(=O)[C@H](CC(=O)O)NC(=O)[C@H](CC(C)C)NC(=O)[C@@H]2CCCN2C(=O)[C@H](CC(C)C)NC(=O)CNC(=O)[C@H](Cc2ccccc2)NC(=O)[C@@H](NC(=O)CNC(=O)[C@H](CO)NC(=O)[C@H](CO)NC(=O)[C@H](CC(C)C)NC(=O)CNC(=O)[C@H](CCCCN)NC(=O)[C@H](CCCCN)NC(=O)[C@H](CCC(N)=O)NC(=O)[C@H](C)NC(=O)CNC(=O)[C@H](CCCCN)NC(=O)[C@H](Cc2ccc(O)cc2)NC(=O)[C@H](CCCCN)NC(=O)[C@H](CCCNC(=N)N)NC(=O)[C@H](C)NC(=O)[C@H](CCC(N)=O)NC(=O)[C@@H]2CCCN2C(=O)[C@H](Cc2c[nH]cn2)NC(=O)[C@H](CCC(=O)O)NC(=O)[C@H](CCC(N)=O)NC(=O)CC[C@H](NC(=O)CC[C@H](NC(=O)CC[C@H](NC(=O)CC[C@H](NC(=O)CC[C@H](NC(=O)CCCCCCCCCCCCCCCCC(=O)O)C(=O)O)C(=O)O)C(=O)O)C(=O)O)C(=O)O)CSSC[C@@H](C(=O)O)NC(=O)CNC(=O)[C@H](CC(C)C)NC(=O)CNC(=O)[C@H](CO)NC(=O)[C@H](CC(C)C)NC(=O)[C@H](CO)NC(=O)CNC1=O` [compound 9482] ({C18 diacid-γGlu-γGlu-γGlu-γGlu-γGlu}-QEHPQARKYKGAQKKGLSSGCFGLPLDRIGSLSGLGC-OH; disulfide 21-37) reads 45 h.
`CC[C@H](C)[C@@H]1NC(=O)[C@H](CCCNC(=N)N)NC(=O)[C@H](CCC(=O)O)NC(=O)[C@H](CC(C)C)NC(=O)[C@@H]2CCCN2C(=O)[C@H](CC(C)C)NC(=O)CNC(=O)[C@H](Cc2ccccc2)NC(=O)[C@@H](NC(=O)CNC(=O)[C@H](CO)NC(=O)[C@H](CO)NC(=O)[C@H](CC(C)C)NC(=O)CNC(=O)[C@H](CCCCN)NC(=O)[C@H](CCCCN)NC(=O)[C@H](CCC(N)=O)NC(=O)[C@H](C)NC(=O)CNC(=O)[C@H](CCCCN)NC(=O)[C@H](Cc2ccc(O)cc2)NC(=O)[C@H](CCCCN)NC(=O)[C@H](CCCNC(=N)N)NC(=O)[C@H](C)NC(=O)[C@H](CCC(N)=O)NC(=O)[C@@H]2CCCN2C(=O)[C@H](Cc2c[nH]cn2)NC(=O)[C@H](CCC(=O)O)NC(=O)[C@H](CCC(N)=O)NC(=O)CC[C@H](NC(=O)CC[C@H](NC(=O)CC[C@H](NC(=O)CC[C@H](NC(=O)CCCCCCCCCCCCCCCCC(=O)O)C(=O)O)C(=O)O)C(=O)O)C(=O)O)CSSC[C@@H](C(=O)O)NC(=O)CNC(=O)[C@H](CC(C)C)NC(=O)CNC(=O)[C@H](CO)NC(=O)[C@H](CC(C)C)NC(=O)[C@H](CO)NC(=O)CNC1=O` [compound 9483] ({C18 diacid-γGlu-γGlu-γGlu-γGlu}-QEHPQARKYKGAQKKGLSSGCFGLPLERIGSLSGLGC-OH; disulfide 21-37): for the setting “ThT, 37° C., shaking”, the “LagTime (h) at pH 4.0” value turned out to be 45 h.
